The values that follow come from patent publication US20220071955A1, “Methods of Treatment, Prevention and Diagnosis” (The Walter and Eliza Hall Institute of Medical Research, priority 2018, published 2022).

“Also recorded” adds a separate entry of the source.

The subject of data set [1] is TDP-43 overexpressing Thp1 cells. Briefly: IFNB1 and TNF induction (qPCR) in TDP-43 overexpressing Thp1 cells. In kind it is cell-based, human. Particulars: Thp1 cells overexpressing TDP-43 (WT or Q331K). The method, then:
(§1) Immortalised mouse embryonic fibroblasts (MEFs) lacking MAVS, PKR, cGAS, STING, Bax/Bak, Mcl1 or WT control were maintained in DME/KELSO medium (in-house DMEM containing 40 mM sodium bicarbonate, 1 mM HEPES, 0.0135 mM folic acid, 0.24 mM L-asparagine, 0.55 mM L-arginine, 1×Pen/Strep and 22.2 mM D-glucose) supplemented with 10% FBS (Sigma-Aldrich). Transfection of MEFs was performed using FuGENE HD (Promega). AGK−/− (gift from D. Stojanovski) and WT HEK293T cells were maintained in DMEM supplemented with 10% FBS, 100 U/mL Penicillin and 100 μg/mL Streptomycin. Lipofectamine 2000 (Life Technologies) was used to transfect HEK293T cells according to manufacturers' instructions. Human monocytic THP-1 cells were grown in RPMI-1640 with 10% FBS, 100 U/mL Penicillin and 100 μg/mL Streptomycin. The above cell culture was conducted at 37° C. in a humidified atmosphere with 10% CO2. […] The depletion was analysed using real-time qPCR to measure expression of mitochondrial DNA genes and nuclear genes (see Quantitative real-time PCR below).
(§2) Total RNA was isolated using the ISOLATE II RNA Mini Kit (Bioline) as per manufacturers' instructions and reverse transcribed using oligo(dT) nucleotides. Primers for cytokines, mitochondrial DNA and housekeeping genes were used as described previously (White et al., 2014; De Nardo et al., 2014). Others were designed using the Integrated DNA Technologies online tool as follows: hsIFNB1 FW, 5′-TGTCGCCTACTACCTGTTGTGC-3′ (SEQ ID NO:17); hsIFNB1 RV, 5′-AACTGCAACCTTTCGAAGCC-3′ (SEQ ID NO:18); mmIfnb1 FW: 5′-CCAGCTCCAAGAAAGGACGA-3′ (SEQ ID NO:19); mmIfnb1 RV: 5′-TGGATGGCAAAGGCAGTGTA-3′ (SEQ ID NO:20); mmIfna6 FW: 5′-GCTTTCCTGATGGTTTTGGTG-3′ (SEQ ID NO:21); mmIfna6 RV: 5′-AGGCTTTCTTGTTCCTGAGG-3′ (SEQ ID NO:22). Quantitative real-time PCR was performed using SYBR Green/ROX qPCR Master Mix (Thermo Scientific) on a ViiA 7 Real-Time PCR system (Thermo Scientific).
Cytokine expression from qPCR is represented as gene expression relative to Hprt expression as δCt method. Where indicated, relative gene expression in TDP-43 WT or mutant overexpressing cells was further normalised to expression in vector control transfected/overexpressed cells of the same genotype in the same experiment and represented as fold change. Data are typically mean±s.e.m and analysed by t-test between two groups or one- or two-way ANOVA followed by a Sidak or Dunnett multiple comparison test as appropriate. GraphPad Prism 7 was used for all charts and statistical analyses. A P values <0.05 was considered as significant.
Finally, to determine if pharmacological blockade of the cGAS-STING pathway is feasible, recently described inhibitors of cGAS (RU.521, described in Vincent et al., 2017) and STING (H-151 described in Haag et al) were tested. […]
In general terms: Real-time PCR tracks product formation cycle by cycle.

Another data set relates to TDP-43 mutant mice. Briefly: Rotarod test in TDP-43 mutant mice with established disease. Particulars: H-151 (3.75 mM) i.p. every the other day for 4 weeks from 120 days of age. In kind it is in vivo, mouse. For orientation: Falling from the rotarod earlier than controls is read as motor impairment.
The test system of data set [2] is human iPSC-derived motor neurons. In words: IFNB1 and TNF gene induction (qPCR) in human iPSC-derived motor neurons. In kind it is cell-based. Particulars: motor neurons from healthy controls and ALS patients with TDP-43 mutations.
Text: as §2
(§3) The established human iPSC lines used in this study included two controls (NCRM-1 and NCRM-5) from the National Institute of Neurological Disorders and Stroke, one control and one ALS patient from Alessandro Rosa, one ALS patient from RIKEN and one ALS patient (TALSTDP-47.10) from the Target ALS Foundation. All iPSCs were maintained on Matrigel (Corning, 354277)-coated 6-well plates in mTeSR1 (STEMCell Technologies, 85850) containing 1× Primocin (Invivogen, ant-pm-1) and passaged 1:6 using ReLeSR (STEMCell Technologies, 05872) with ROCK inhibitor Y-27632 (STEMCell Technologies, 72304) for the first 24 hours. The medium was replaced daily. Cells were cyropreserved in mTeSR1/10% DMSO.
(§4) Differentiation of iPSCs into ChAT^+ motor neurons was performed as described previously (Du et al., 2015) All medium and reagents from Gibco unless otherwise stated.
Human iPSCs were cultured in a chemically defined Neural Medium: DMEM/F12:Neurobasal (1:1) supplemented with 0.5×N2, 0.5×B27, 0.1 mM L-ascorbic acid (Sigma), 1× Glutamax and 1× Primocin (Invivogen) containing 3 μM CHIR99021 (STEMCell Technologies, 72054), 2 μM Dorsomorphin (STEMCell Technologies, 72102) and 2 μM SB431542 (STEMCell Technologies, 72234) for 6 days, and the medium was changed every other day.
The NEPs were dissociated with ReLeSR and cultured 1:6 on Matrigel-coated plates in the Neural Medium containing 1 μM CHIR99021, 2 μM Dorsomorphin and 2 μM SB431542 for 6 days. Y-27632 was used for the first 24 hours. The medium was changed every other day. At this stage of differentiation, MNPs were either expanded in the Neural Medium containing 3 μM CHIR99021, 2 μM Dorsomorphin, 2 μM SB431542, 0.1 μM all-trans retinoic acid (Sigma, R2500), 0.5 μM Purmorphamine (STEMCell Technologies, 72204) and 0.5 mM Valporic Acid (STEMCell Technologies, 72292) prior to MN diffrenertiation or cryopreserved in DMEM/F12 containing 10% FBS and 10% DMSO.
The MNPs were dissociated with ReLeSR and cultured on Matrigel-coated plates in the Neural Medium containing 0.5 μM all-trans RA and 0.1 μM Pur for 6 days into premature MNX1^+ MN. Y-27632 was used for the first 24 hours and the medium was replaced every other day. Subsequently, cells were detached with Accutase (Merck Millipore, SCR005) to generate single cell suspension and matured in the medium supplemented with 0.1 μM Compound E (STEMCell Technologies, 73954) for 10 days into ChAT^+ MNs. The medium was replaced every other day. Cells were plated in Matrigel-coated 8-well chamber slides (iBidi, 80826) to confirm cellular markers of MNs, including MNX1 (Merck Millipore, ABN174) and ChAT (Merck Millipore, […]) along with βIII-Tubulin (Promega, clone 5G8, G7121) staining using an inverted SP8 confocal microscopy (Leica).

The test system of data set [3] is ALS patient iPSC-derived motor neurons. In words: LDH cytotoxicity assay and brightfield imaging of iPSC-derived motor neurons. The format is cell-based, human. Conditions: H-151 1 μM, 4-week treatment.
Text: as §3, §4
Human iPSCs were cultured in a chemically defined Neural Medium: DMEM/F12:Neurobasal (1:1) supplemented with 0.5×N2, 0.5×B27, 0.1 mM L-ascorbic acid (Sigma), 1× Glutamax and 1× Primocin (Invivogen) containing 3 μM CHIR99021 (STEMCell Technologies, 72054), 2 μM Dorsomorphin (STEMCell Technologies, 72102) and 2 μM SB431542 (STEMCell Technologies, 72234) for 6 days, and the medium was changed every other day. […]

The next data set deals with MEFs. In words: Super-resolution confocal microscopy of TDP-43-mediated DNA relocation from mitochondria into the cytoplasm. Conditions: CsA 25 μM. In kind it is cell-based, mouse. The method, then:
MEF cell lines expressing doxycycline-induced Flagged TDP-43 were seeded onto glass coverslips (18 mm×18 mm, thickness 1½, Zeiss) for indicated times and prepared for imaging as previously described (McArthur et al., 2018). In brief, cells were fixed, blocked and incubated overnight at 4° C. with primary antibodies as follows: anti-Flag (In-house, 9H1), anti-DNA (ProGen, AC-30-10) and anti-TOM20 (Santa Cruz Biotech, sc-11415) in blocking buffer. Following two washes in PBS and an one-hour incubation with secondary antibodies [goat anti-rabbit AF647 (A21245), goat anti-mouse AF488 (A11001 and goat anti-rat AF568, A11077) from Life Technologies], coverslips were mounted onto the microscopy slide using Prolong Diamond Antifade Mountant (ThermoFisher Scientific). Three color imaging was performed on the OMX-SR system (GE Healthcare) using a 60 Å˜1.42 NA oil immersion lens (Olympus).

The test system of a further data set is 293T cells. In words: Ifnb1 gene expression induced by TDP-43 (qPCR). Particulars: CsA 25 μM. The format is cell-based. Here is the method:
as §1
Total RNA was isolated using the ISOLATE II RNA Mini Kit (Bioline) as per manufacturers' instructions and reverse transcribed using oligo(dT) nucleotides. […] Quantitative real-time PCR was performed using SYBR Green/ROX qPCR Master Mix (Thermo Scientific) on a ViiA 7 Real-Time PCR system (Thermo Scientific).

For the compound `CCc1ccc(NC(=O)Nc2c[nH]c3ccccc23)cc1` [H-151], in data set [1], the IFNB1 induction entry was “prevent” and the TNF induction result is on record as “prevent”. Further, the “latency to fall in a rotarod test” value in the data set with TDP-43 mutant mice was “significantly improved”. Moreover, in data set [2] (H-151 1 μM), the IFNB1 gene induction result was “prevent” and the TNF gene induction result is recorded as “prevent”. Besides, the “ALS-associated cytotoxicity (LDH, imaging)” value in data set [3] was “mitigates ALS-associated cytotoxicity”.
Turning to `COC1=C(OC)C(=O)C(CCCCCCCCCC[P+](c2ccccc2)(c2ccccc2)c2ccccc2)=C(C)C1=O` [MitoQ], in data set [2] (ROS inhibitors 0.1-1 μM), the IFNB1 gene induction entry was “prevent” and the TNF gene induction entry is “prevent”.
Take `CC1(C)CC(NC(=O)C[P+](c2ccccc2)(c2ccccc2)c2ccccc2)CC(C)(C)N1[O]` [MitoTEMPO]: in data set [2] (ROS inhibitors 0.1-1 μM), the IFNB1 gene induction result was “prevent” and the TNF gene induction entry is “prevent”.
As to `Cc1nn(-c2nc3ccc(Cl)c(Cl)c3[nH]2)c(O)c1C1OC(=O)c2ccccc21` (stereo not shown) [RU.521], in data set [1], the IFNB1 induction result is reported as “prevent” and the TNF induction entry is reported as “prevent”. Moreover, in data set [2] (RU.521 10 μM), the IFNB1 gene induction result is “prevent” and the TNF gene induction result is listed as “prevent”.
Regarding cyclosporin A [CsA], the “TDP-43-mediated DNA relocation from mitochondria into the cytoplasm” value with MEFs is recorded as “prevented mtDNA leakage into the cytoplasm; also recorded: significantly reduced”. Further, the “Ifnb1 gene expression induced by TDP-43” value in the data set with 293T cells is “prevents”.
